Columns and labels:
Assay in all cases: relative viability (nuclei count vs DMSO), 5 days (fraction); higher = more cells survive
[1] = compound: Cn1nnc2c(C(N)=O)ncn2c1=O [Temozolomide] + CCNC(=O)c1noc(-c2cc(C(C)C)c(O)cc2O)c1-c1ccc(CN2CCOCC2)cc1 [Luminespib] (partner 0.01 µM)
How it was run: (§1)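 Medians of duplicate plates are given as relative viability. That measure is the nuclei count in treated wells divided by the count in vehicle wells. Counts were taken on 4× images of lung cancer cell lines in 1536-well plates, 5 days after pin-tool dosing the day after seeding with one drug alone or a fixed anchor-drug dose plus five library-drug doses (not always all listed) in √10 steps.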

[2] = compound: Cn1nnc2c(C(N)=O)ncn2c1=O [Temozolomide] + N=C(N)NC(=N)NCCc1ccccc1 [Phenformin] (partner 250 µM)
How it was run: as §1

[3] = compound: Cn1nnc2c(C(N)=O)ncn2c1=O [Temozolomide] + CC(=O)c1c(C)c2cnc(Nc3ccc(N4CCNCC4)cn3)nc2n(C2CCCC2)c1=O [Palbociclib] (partner 0.5 µM)
How it was run: as §1

AZD5582 + Lapatinib = compound: C[C@@H](C(=O)N[C@@H](C1CCCCC1)C(=O)N2CCC[C@H]2C(=O)N[C@@H]3[C@@H](CC4=CC=CC=C34)OCC#CC#CCO[C@@H]5CC6=CC=CC=C6[C@@H]5NC(=O)[C@@H]7CCCN7C(=O)[C@H](C8CCCCC8)NC(=O)[C@H](C)NC)NC [AZD5582] + CS(=O)(=O)CCNCc1ccc(-c2ccc3ncnc(Nc4ccc(OCc5cccc(F)c5)c(Cl)c4)c3c2)o1 [Lapatinib] (partner 2 µM)
How it was run: as §1

For CAL-12T, the relative viability ([1]; first compound 0.2 µM) was 0.27, the relative viability ([1]; first compound 0.6325 µM) was 0.518 and the relative viability ([1]; first compound 2 µM) was 0.862. For the same cell line, the relative viability ([1]; first compound 6.325 µM) was 0.115, the relative viability ([1]; first compound 20 µM) was 0.723 and the relative viability ([2]; first compound 0.2 µM) was 0.657. For the same cell line, the relative viability ([2]; first compound 0.6325 µM) was 0.612, the relative viability ([2]; first compound 2 µM) was 0.529 and the relative viability ([2]; first compound 6.325 µM) was 0.574. It also gave a relative viability ([2]; first compound 20 µM) of 0.558, a relative viability ([3]; first compound 0.2 µM) of 0.285 and a relative viability ([3]; first compound 0.6325 µM) of 0.568. It also gave a relative viability ([3]; first compound 2 µM) of 0.608, a relative viability ([3]; first compound 6.325 µM) of 0.484 and a relative viability ([3]; first compound 20 µM) of 0.405. The relative viability (AZD5582 + Lapatinib; first compound 0.001581 µM) was 0.293, the relative viability (AZD5582 + Lapatinib; first compound 0.005 µM) was 0.434 and the relative viability (AZD5582 + Lapatinib; first compound 0.01581 µM) was 0.382. It also gave a relative viability (AZD5582 + Lapatinib; first compound 0.05 µM) of 0.326.
HCC-44 showed a relative viability ([1]; first compound 0.2 µM) of 0.634, a relative viability ([1]; first compound 0.6325 µM) of 1.05 and a relative viability ([1]; first compound 2 µM) of 1.12. The relative viability ([1]; first compound 6.325 µM) was 0.897, the relative viability ([1]; first compound 20 µM) was 0.966 and the relative viability ([2]; first compound 0.2 µM) was 0.194. For the same cell line, the relative viability ([2]; first compound 0.6325 µM) was 0.238, the relative viability ([2]; first compound 2 µM) was 0.17 and the relative viability ([2]; first compound 6.325 µM) was 0.185. For the same cell line, the relative viability ([2]; first compound 20 µM) was 0.315, the relative viability ([3]; first compound 0.2 µM) was 0.984 and the relative viability ([3]; first compound 0.6325 µM) was 0.943. The relative viability ([3]; first compound 2 µM) was 0.921, the relative viability ([3]; first compound 6.325 µM) was 0.988 and the relative viability ([3]; first compound 20 µM) was 0.981. It also gave a relative viability (AZD5582 + Lapatinib; first compound 0.001581 µM) of 0.754, a relative viability (AZD5582 + Lapatinib; first compound 0.005 µM) of 0.916 and a relative viability (AZD5582 + Lapatinib; first compound 0.01581 µM) of 1.11. For the same cell line, the relative viability (AZD5582 + Lapatinib; first compound 0.05 µM) was 0.467.
A-427 was tested, and the relative viability ([1]; first compound 0.2 µM) was 0.699, the relative viability ([1]; first compound 0.6325 µM) was 0.803 and the relative viability ([1]; first compound 2 µM) was 0.799. The relative viability ([1]; first compound 6.325 µM) was 0.618, the relative viability ([1]; first compound 20 µM) was 0.394 and the relative viability ([2]; first compound 0.2 µM) was 0.314. The relative viability ([2]; first compound 0.6325 µM) was 0.364, the relative viability ([2]; first compound 2 µM) was 0.39 and the relative viability ([2]; first compound 6.325 µM) was 0.246. The relative viability ([2]; first compound 20 µM) was 0.267, the relative viability ([3]; first compound 0.2 µM) was 0.519 and the relative viability ([3]; first compound 0.6325 µM) was 0.575. For the same cell line, the relative viability ([3]; first compound 2 µM) was 0.518, the relative viability ([3]; first compound 6.325 µM) was 0.492 and the relative viability ([3]; first compound 20 µM) was 0.427. It also gave a relative viability (AZD5582 + Lapatinib; first compound 0.001581 µM) of 0.865, a relative viability (AZD5582 + Lapatinib; first compound 0.005 µM) of 0.996 and a relative viability (AZD5582 + Lapatinib; first compound 0.01581 µM) of 0.942. The relative viability (AZD5582 + Lapatinib; first compound 0.05 µM) was 0.831.
NCI-H1666 gave a relative viability ([1]; first compound 0.2 µM) of 0.976, a relative viability ([1]; first compound 0.6325 µM) of 0.993 and a relative viability ([1]; first compound 2 µM) of 0.874. For the same cell line, the relative viability ([1]; first compound 6.325 µM) was 0.677, the relative viability ([1]; first compound 20 µM) was 0.701 and the relative viability ([2]; first compound 0.2 µM) was 0.575. It also gave a relative viability ([2]; first compound 0.6325 µM) of 0.584, a relative viability ([2]; first compound 2 µM) of 0.585 and a relative viability ([2]; first compound 6.325 µM) of 0.526. For the same cell line, the relative viability ([2]; first compound 20 µM) was 0.594, the relative viability ([3]; first compound 0.2 µM) was 0.693 and the relative viability ([3]; first compound 0.6325 µM) was 0.672. It also gave a relative viability ([3]; first compound 2 µM) of 0.642, a relative viability ([3]; first compound 6.325 µM) of 0.756 and a relative viability ([3]; first compound 20 µM) of 0.667. The relative viability (AZD5582 + Lapatinib; first compound 0.001581 µM) was 0.488, the relative viability (AZD5582 + Lapatinib; first compound 0.005 µM) was 0.712 and the relative viability (AZD5582 + Lapatinib; first compound 0.01581 µM) was 0.673. For the same cell line, the relative viability (AZD5582 + Lapatinib; first compound 0.05 µM) was 0.744.
Work on HCC-78 yielded a relative viability ([2]; first compound 0.2 µM) of 0.701, a relative viability ([2]; first compound 0.6325 µM) of 0.755 and a relative viability ([2]; first compound 2 µM) of 0.713. The relative viability ([2]; first compound 6.325 µM) was 0.656, the relative viability ([2]; first compound 20 µM) was 0.751 and the relative viability ([3]; first compound 0.2 µM) was 0.474. It also gave a relative viability ([3]; first compound 0.6325 µM) of 0.475, a relative viability ([3]; first compound 2 µM) of 0.458 and a relative viability ([3]; first compound 6.325 µM) of 0.473. For the same cell line, the relative viability ([3]; first compound 20 µM) was 0.487, the relative viability (AZD5582 + Lapatinib; first compound 0.001581 µM) was 0.703 and the relative viability (AZD5582 + Lapatinib; first compound 0.005 µM) was 0.794. It also gave a relative viability (AZD5582 + Lapatinib; first compound 0.01581 µM) of 0.603 and a relative viability (AZD5582 + Lapatinib; first compound 0.05 µM) of 0.198.
In the case of HCC-366, the relative viability ([2]; first compound 0.2 µM) is reported as 0.639, the relative viability ([2]; first compound 0.6325 µM) is reported as 0.647 and the relative viability ([2]; first compound 2 µM) is reported as 0.631. The relative viability ([2]; first compound 6.325 µM) was 0.621, the relative viability ([2]; first compound 20 µM) was 0.62 and the relative viability ([3]; first compound 0.2 µM) was 0.449. The relative viability ([3]; first compound 0.6325 µM) was 0.467, the relative viability ([3]; first compound 2 µM) was 0.341 and the relative viability ([3]; first compound 6.325 µM) was 0.396. The relative viability ([3]; first compound 20 µM) was 0.369, the relative viability (AZD5582 + Lapatinib; first compound 0.001581 µM) was 0.936 and the relative viability (AZD5582 + Lapatinib; first compound 0.005 µM) was 1.05. It also gave a relative viability (AZD5582 + Lapatinib; first compound 0.01581 µM) of 0.961 and a relative viability (AZD5582 + Lapatinib; first compound 0.05 µM) of 1.08.
Work on EPLC-272H yielded a relative viability ([1]; first compound 0.2 µM) of 0.234, a relative viability ([1]; first compound 0.6325 µM) of 0.279 and a relative viability ([1]; first compound 2 µM) of 0.304. For the same cell line, the relative viability ([1]; first compound 6.325 µM) was 0.707, the relative viability ([1]; first compound 20 µM) was 0.446 and the relative viability ([2]; first compound 0.2 µM) was 0.156. It also gave a relative viability ([2]; first compound 0.6325 µM) of 0.305, a relative viability ([2]; first compound 2 µM) of 0.332 and a relative viability ([2]; first compound 6.325 µM) of 0.461. It also gave a relative viability ([2]; first compound 20 µM) of 0.28, a relative viability ([3]; first compound 0.2 µM) of 0.319 and a relative viability ([3]; first compound 0.6325 µM) of 0.337. The relative viability ([3]; first compound 2 µM) was 0.356, the relative viability ([3]; first compound 6.325 µM) was 0.321 and the relative viability ([3]; first compound 20 µM) was 0.299. It also gave a relative viability (AZD5582 + Lapatinib; first compound 0.001581 µM) of 0.313, a relative viability (AZD5582 + Lapatinib; first compound 0.005 µM) of 0.16 and a relative viability (AZD5582 + Lapatinib; first compound 0.01581 µM) of 0.573. For the same cell line, the relative viability (AZD5582 + Lapatinib; first compound 0.05 µM) was 0.11.
NCI-H1755 was tested, and the relative viability ([1]; first compound 0.2 µM) was 0.176, the relative viability ([1]; first compound 0.6325 µM) was 0.5 and the relative viability ([1]; first compound 2 µM) was 0.435. The relative viability ([1]; first compound 6.325 µM) was 0.387, the relative viability ([1]; first compound 20 µM) was 0.304 and the relative viability ([2]; first compound 0.2 µM) was 0.68. It also gave a relative viability ([2]; first compound 0.6325 µM) of 0.598, a relative viability ([2]; first compound 2 µM) of 0.621 and a relative viability ([2]; first compound 6.325 µM) of 0.547. For the same cell line, the relative viability ([2]; first compound 20 µM) was 0.532, the relative viability ([3]; first compound 0.2 µM) was 0.443 and the relative viability ([3]; first compound 0.6325 µM) was 0.478. It also gave a relative viability ([3]; first compound 2 µM) of 0.477, a relative viability ([3]; first compound 6.325 µM) of 0.436 and a relative viability ([3]; first compound 20 µM) of 0.424. For the same cell line, the relative viability (AZD5582 + Lapatinib; first compound 0.001581 µM) was 1.01, the relative viability (AZD5582 + Lapatinib; first compound 0.005 µM) was 1.08 and the relative viability (AZD5582 + Lapatinib; first compound 0.01581 µM) was 0.95. It also gave a relative viability (AZD5582 + Lapatinib; first compound 0.05 µM) of 1.03.
SK-MES-1 was tested, and the relative viability ([1]; first compound 0.2 µM) was 0.939, the relative viability ([1]; first compound 0.6325 µM) was 0.823 and the relative viability ([1]; first compound 2 µM) was 0.777. It also gave a relative viability ([1]; first compound 6.325 µM) of 0.831, a relative viability ([1]; first compound 20 µM) of 0.772 and a relative viability ([2]; first compound 0.2 µM) of 0.752. The relative viability ([2]; first compound 0.6325 µM) was 0.68, the relative viability ([2]; first compound 2 µM) was 0.7 and the relative viability ([2]; first compound 6.325 µM) was 0.729. It also gave a relative viability ([2]; first compound 20 µM) of 0.682, a relative viability ([3]; first compound 0.2 µM) of 0.328 and a relative viability ([3]; first compound 0.6325 µM) of 0.312. It also gave a relative viability ([3]; first compound 2 µM) of 0.332, a relative viability ([3]; first compound 6.325 µM) of 0.353 and a relative viability ([3]; first compound 20 µM) of 0.332. For the same cell line, the relative viability (AZD5582 + Lapatinib; first compound 0.001581 µM) was 0.492, the relative viability (AZD5582 + Lapatinib; first compound 0.005 µM) was 0.648 and the relative viability (AZD5582 + Lapatinib; first compound 0.01581 µM) was 0.455. It also gave a relative viability (AZD5582 + Lapatinib; first compound 0.05 µM) of 0.571.
